The text below walks through data of ChEMBL document CHEMBL4376803, “Recent Advances in the Exploration of Therapeutic Analogues of Gramicidin S, an Old but Still Potent Antimicrobial Peptide” (J Med Chem, 2019).

≈ marks a conversion by molar mass, not a printed value. Numbered stars: 1 amine (or outer) side, 2 acyl side, 3 side chain; on linkers, the order of the positions; unused ones are H or OH. Square brackets hold non-standard residues; d marks the D form. Peptide text beside a SMILES is read from it. X1 = Cc1nc([C@@H](Cc2ccccc2)N[*:1])c(C(=O)[*:2])s1; Orn = NCCC[C@H](N)C(=O)O

Series [1] concerns Escherichia coli. The experiment in a line: Antibacterial activity against Escherichia coli ATCC 25922 after 24 hrs. Type of series: functional. As to conditions: ATCC 25922, 24 h.
Series [2] relates to Pseudomonas aeruginosa. As to the kind of experiment: Antibacterial activity against Pseudomonas aeruginosa ATCC 27853 incubated for 24 hrs. It is filed as functional. As to conditions: ATCC 27853, 24 h.
For series [3], the system named is Staphylococcus aureus. As to the kind of experiment: Antibacterial activity against Staphylococcus aureus ATCC 29213 after 24 hrs. The settings on record: ATCC 29213, 24 h. It is filed as functional.
Series [4] concerns Staphylococcus aureus. The experiment in a line: Antibacterial activity against methicillin-resistant Staphylococcus aureus NT 1110301981H-T034-PVL+ incubated for 24 hrs. Type of series: functional.
Series [5] has as its system Enterococcus faecalis. As to the kind of experiment: Antibacterial activity against Enterococcus faecalis ATCC 29212 after 24 hrs. As to conditions: ATCC 29212, 24 h. It is filed as functional.
Series [6] concerns Staphylococcus aureus. The experiment in a line: Antibacterial activity against Staphylococcus aureus ATCC 49975 after 16 to 20 hrs by broth microdilution method. Type of series: functional.
The nature of series [7]: Therapeutic index, ratio of HD100 for hemolytic activity in human erythrocytes to MIC against Escherichia coli ATCC 25922. It is filed as toxicity, cell-based. The settings on record: read-out: TI.
Series [8] concerns Staphylococcus aureus. As to the kind of experiment: Antibacterial activity against Staphylococcus aureus ATCC 29213. Type of series: functional.
Series [9] relates to Pseudomonas aeruginosa. As to the kind of experiment: Antibacterial activity against Pseudomonas aeruginosa ATCC 27853. Type of series: functional.
The subject of series [10] is Erythrocyte. As to the kind of experiment: (§1) Haemolytic activity in human erythrocytes. It is filed as ADME, cell-based. The settings on record: erythrocyte.
Series [11] concerns Escherichia coli. The experiment in a line: Antibacterial activity against Escherichia coli ATCC 25922. Type of series: functional.
Series [12] is described as follows: Therapeutic index, ratio of HD100 for hemolytic activity in human erythrocytes to MIC against Pseudomonas aeruginosa ATCC 27853. As to conditions: read-out: TI. It is filed as toxicity, cell-based.
The nature of series [13]: Therapeutic index, ratio of HD100 for hemolytic activity in human erythrocytes to MIC against Staphylococcus aureus ATCC 29213. As to conditions: read-out: TI. Type of series: toxicity, cell-based.
Series [14] deals with Enterococcus faecalis. The experiment in a line: Antibacterial activity against Enterococcus faecalis ATCC 29212. It is filed as functional.
A short description of series [15]: Therapeutic index, ratio of HD100 for hemolytic activity in human erythrocytes to MIC against Enterococcus faecalis ATCC 29212. Type of series: toxicity, cell-based. The settings on record: read-out: TI.
Series [16] is described as follows: Haemolytic activity in human RBC after 4 hrs. The settings on record: human red blood cells. It is filed as ADME, cell-based, Erythrocyte.
The nature of series [17]: as §1. Type of series: ADME, cell-based, Erythrocyte. As to conditions: human erythrocytes.
Series [18] deals with Staphylococcus aureus. As to the kind of experiment: Antibacterial activity against Staphylococcus aureus. It is filed as functional.
Series [19] has as its system Staphylococcus xylosus. As to the kind of experiment: Antibacterial activity against Staphylococcus xylosus. Type of series: functional.
Series [20] deals with Staphylococcus epidermidis. As to the kind of experiment: Antibacterial activity against Staphylococcus epidermidis. Type of series: functional.
In series [21] the test system is Staphylococcus aureus. As to the kind of experiment: Antibacterial activity against Staphylococcus aureus K147 after overnight incubation by microtiter dilution method. It is filed as functional.
Series [22] concerns Enterococcus faecalis. As to the kind of experiment: Antibacterial activity against Enterococcus faecalis ATCC 29212 after overnight incubation by microtiter dilution method. Type of series: functional.
Series [23] in a line: Therapeutic index, ratio of HD100 for hemolytic activity in human RBC to MIC against Pseudomonas aeruginosa H187. It is filed as toxicity. The settings on record: human red blood cells, read-out: TI.
Series [24] deals with Escherichia coli. The experiment in a line: Antibacterial activity against Escherichia coli UB1005 after overnight incubation by microtiter dilution method. Type of series: functional.
Series [25] deals with Candida albicans. As to the kind of experiment: Antibacterial activity against Candida albicans after overnight incubation by microtiter dilution method. It is filed as functional.
The target of series [26] is Lipopolysaccharide (LPS). The experiment in a line: Displacement of Dansyl-polymyxin from Pseudomonas aeruginosa LPS by fluorescence method. The settings on record: read-out: I50.
Series [27] in a line: Therapeutic index, ratio of HD100 for hemolytic activity in human RBC to MIC against Enterococcus faecalis ATCC 29212. It is filed as toxicity. As to conditions: human red blood cells, read-out: TI.
Series [28] can be described thus: Therapeutic index, ratio of HD100 for hemolytic activity in human RBC to MIC against Escherichia coli UB1005. The settings on record: human red blood cells, read-out: TI. It is filed as toxicity.
For series [29], the system named is Pseudomonas aeruginosa. As to the kind of experiment: Antibacterial activity against Pseudomonas aeruginosa H187 after overnight incubation by microtiter dilution method. It is filed as functional.
The nature of series [30]: Therapeutic index, ratio of HD100 for hemolytic activity in human RBC to MIC against Staphylococcus aureus K147. The settings on record: human red blood cells, read-out: TI. It is filed as toxicity.
The nature of series [31]: Therapeutic index, ratio of HD100 for hemolytic activity in human RBC to MIC against Candida albicans. Type of series: toxicity. As to conditions: human red blood cells, read-out: TI.
For series [32], the system named is Erythrocyte. The experiment in a line: Haemolytic activity in human RBC after 24 hrs by visual method. Type of series: ADME, cell-based.
Series [33] in a line: Haemolytic activity in human erythrocytes at 100 ug/ml after 30 mins relative to control. It is filed as ADME, cell-based, Erythrocyte. As to conditions: read-out: Activity.
Series [34] relates to Escherichia coli. As to the kind of experiment: Antibacterial activity against Escherichia coli ATCC 8739 incubated for 48 hrs. Type of series: functional. The settings on record: ATCC 8739, 48 h.
For series [35], the system named is Bacillus subtilis. As to the kind of experiment: Antibacterial activity against Bacillus subtilis CIP 52.65 incubated for 48 hrs. Type of series: functional. The settings on record: CIP 52.65, 48 h.
In series [36] the test system is Pseudomonas aeruginosa. The experiment in a line: Antibacterial activity against Pseudomonas aeruginosa ATCC 9027 incubated for 48 hrs. Type of series: functional. The settings on record: ATCC 9027, 48 h.
The test system of series [37] is Staphylococcus aureus. As to the kind of experiment: Antibacterial activity against Staphylococcus aureus ATCC 6538 incubated for 48 hrs. It is filed as functional. The settings on record: ATCC 6538, 48 h.

As to `NCCC[C@@H]1NC(=O)[C@H](C23CC4CC(CC(C4)C2)C3)NC(=O)[C@H](CCCN)NC(=O)[C@@H]2CCCN2C(=O)[C@@H](Cc2ccccc2)NC(=O)[C@H](CCCN)NC(=O)[C@H](C23CC4CC(CC(C4)C2)C3)NC(=O)[C@H](CCCN)NC(=O)[C@@H]2CCCN2C(=O)[C@@H](Cc2ccccc2)NC1=O`, the minimum inhibitory concentration (MIC) was determined as 8 µg/mL (≈ 6.03 µM) in series [1]; 16 µg/mL (≈ 12.1 µM) in series [2]; 8 µg/mL (≈ 6.03 µM) in [3]; 8 µg/mL (≈ 6.03 µM) in series [4]; 8 µg/mL (≈ 6.03 µM) in series [5].

Take `CC(C)C[C@@H]1NC(=O)[C@@H](CCCN)NC(=O)[C@H](C(C)C)NC(=O)c2cccc(c2)/N=N\c2ccc(cc2)CNC(=O)[C@H](CCCN)NC(=O)[C@H](C(C)C)NC(=O)[C@@H]2CCCN2C(=O)[C@@H](Cc2ccccc2)NC1=O`: in series [6], the MIC amounted to 64 µg/mL (≈ 62.7 µM).

`CC(C)C[C@@H]1NC(=O)[C@H](CCCN)NC(=O)[C@H](C(C)C)NC(=O)[C@@H]2CCCN2C(=O)[C@@H](Cc2ccccc2)NC(=O)[C@H](CC(C)C)NC(=O)[C@H](CCCN)NC(=O)[C@H](C(C)C)NC(=O)[C@H](CCCN)NC(=O)[C@H](CC(C)C)NC(=O)[C@H]2CC[C@H](OCc3ccccc3)[C@@H](CNC(=O)[C@H](C(C)C)NC(=O)[C@H](CCCN)NC1=O)O2`: the selectivity ratio stood at 3.9 in series [7], 7.8 in series [12], 15.6 in series [13] and 7.8 in series [15]. In addition, the minimal inhibitory concentration (MIC) in series [8] is 4 µg/mL (≈ 2.52 µM); in series [9], 8 µg/mL (≈ 5.05 µM); in series [11] it was 16 µg/mL (≈ 10.1 µM); in series [14], 8 µg/mL (≈ 5.05 µM). Further, in series [10], the Activity stood at 62.5 µg/mL.

The compound `NCCC[C@@H]1NC(=O)[C@H](C23CC4CC(CC(C4)C2)C3)NC(=O)[C@@H]2CCCN2C(=O)[C@@H](Cc2ccccc2)NC(=O)[C@H](C23CC4CC(CC(C4)C2)C3)NC(=O)[C@H](CCCN)NC(=O)[C@H](C23CC4CC(CC(C4)C2)C3)NC(=O)[C@@H]2CCCN2C(=O)[C@@H](Cc2ccccc2)NC(=O)[C@H](C23CC4CC(CC(C4)C2)C3)NC1=O` gave an HC50 at 4 h in series [16] of 7.55 µg/mL.

For `CC(C)C[C@@H]1NC(=O)[C@H](CCCN)NC(=O)[C@H](C(C)C)NC(=O)[C@@H]2CCCN2C(=O)[C@@H](Cc2ccccc2)NC(=O)[C@H](CC(C)C)NC(=O)[C@H](CCCN)NC(=O)[C@H](C(C)C)NC(=O)C2=CC3=C4CCCC4=C4C=C(SC4(C)C3(C)S2)C(=O)NNC1=O` (some centres not stated) [listing 1 of 2 here], the HC50 in [17] came to 58 µg/mL.

Take `CC(C)C[C@@H]1NC(=O)[C@H](CCCN)NC(=O)[C@H](C(C)C)NC(=O)[C@@H]2CCCN2C(=O)[C@@H](Cc2ccccc2)NC(=O)[C@H](CC(C)C)NC(=O)[C@H](CCCN)NC(=O)[C@H](C(C)C)NC(=O)C2=CC3=C4CCCC4=C4C=C(SC4(C)C3(C)S2)C(=O)NNC1=O` (some centres not stated) [listing 2 of 2 here]: the MIC is 16 µg/mL (≈ 12.9 µM) in [18], 32 µg/mL (≈ 25.8 µM) in [19] and 32 µg/mL (≈ 25.8 µM) in series [20].

Take `CC(C)C[C@@H]1NC(=O)[C@H](CCCCN)NC(=O)[C@H](C(C)C)NC(=O)[C@@H]2CCCN2C(=O)[C@@H](Cc2ccc(O)cc2)NC(=O)[C@H](CC(C)C)NC(=O)[C@H](CCCCN)NC(=O)[C@H](C(C)C)NC(=O)[C@H](CCCCN)NC(=O)[C@H](CC(C)C)NC(=O)[C@@H]2CCCN2C(=O)[C@@H](Cc2ccc(O)cc2)NC(=O)[C@H](C(C)C)NC(=O)[C@@H](CCCCN)NC1=O` (cyclo(KL[dK]V[dY]PLKVKL[dY]PV)): the minimum inhibitory concentration (MIC) in series [21] is 100 µg/mL (≈ 59.9 µM); in series [22] it was 1.5 µg/mL (≈ 0.898 µM); in [24], 6.2 µg/mL (≈ 3.71 µM); in [25] it was 6.2 µg/mL (≈ 3.71 µM); in [29], 25 µg/mL (≈ 15 µM). Besides, the selectivity ratio in [23] worked out at 8; in series [27], 133; in series [28], 32; in [30], 2; in series [31] it was 32. In addition, the IC50 in [26] stood at 93 µM. The same compound returned an HD100 in series [32] of 200 µg/mL.

Turning to `Cc1nc2c(s1)C(=O)N[C@@H](C(C)C)C(=O)N[C@@H](CCCN)C(=O)N[C@@H](CC(C)C)C(=O)N[C@H](Cc1ccccc1)c1nc(C)sc1C(=O)N[C@@H](C(C)C)C(=O)N[C@@H](CCCN)C(=O)N[C@@H](CC(C)C)C(=O)N[C@@H]2Cc1ccccc1` (cyclo(L[X1]V[Orn]L[X1]V[Orn])), the hemolysis at 0.5 h, 100 ug/ml in [33] came out at 14%. For the same compound, the MIC in series [34] is 25 µg/mL (≈ 21.9 µM); in series [35] it was 3.12 µg/mL (≈ 2.74 µM); in series [36] it was greater than 50 µg/mL; in [37], 4.68 µg/mL (≈ 4.1 µM).
